From patent US7378403B2, “Akt inhibitors, pharmaceutical compositions, and uses thereof” (The United States of America as represented by the …, priority 2002, dated 2008)

Key:
Type in all cases: cell-based
[1] = system: H1703, H157, and H1155 cells; experiment: Apoptosis in cell lines with high levels of Akt activity; details: FIG. 4
Method: (§1) Cell lines containing high or low endogenous levels of Akt activity were treated with SH compounds and the cell apoptosis was measured.

p38 = experiment: Immunoblotting with phospho-specific antibodies: p38 phosphorylation; details: H1703 (FIG. 3A) or H157 cells (FIG. 3B)
Method: (§2) The SH compounds were tested against Akt and other kinases that are either upstream of Akt (PDK-1), downstream of Akt (c-Raf, 4EBP-1, p70S6K, FKHR, GSK-3, and/or AFX), or downstream of Ras (ERK, p38). Immunoblotting was carried out with phospho-specific antibodies to assess activation state of the kinases, and with native antibodies to assess changes in protein levels. Similar results were obtained with the H1703 (FIG. 3A) or H157 cells (FIG. 3B). […] Upstream of Akt, phosphorylation of PDK-1 was not affected by any SH compound. Of the downstream substrates, c-Raf phosphorylation and 4EBP-1 phosphorylation were decreased most. Decreased c-Raf phosphorylation correlated with increased ERK and p38 phosphorylation, which is consistent with the inhibitory effect of S259 phosphorylation by Akt on c-Raf activity.

H1355 and A549 cells = experiment: Apoptosis in cells with low endogenous Akt levels
Method: as §1

Akt = experiment: Immunoblotting with antibodies against Akt phosphorylated at S473 and native Akt after administration of compounds to cancer cell lines; details: for native Akt levels (immunoblot) / Akt phosphorylation at S473 (immunoblot): FIG. 1D; for decreasing Akt phosphorylation: panel of cancer cell lines (summary)
Method: The SH compounds were tested against Akt and other kinases that are either upstream of Akt (PDK-1), downstream of Akt (c-Raf, 4EBP-1, p70S6K, FKHR, GSK-3, and/or AFX), or downstream of Ras (ERK, p38). Immunoblotting was carried out with phospho-specific antibodies to assess activation state of the kinases, and with native antibodies to assess changes in protein levels.

4EBP-1 = experiment: Immunoblotting with phospho-specific antibodies: 4EBP-1 phosphorylation; details: summary, cell line not specified
Method: as §2

tuberin = experiment: Phosphorylation of tuberin
From the text: SH5, 6, 23, 24, and 25 are very active in decreasing Akt phosphorylation in a panel of cancer cell lines. These compounds decrease Akt phosphorylation as well as Akt kinase activity, with IC50s in the low micromolar range. These compounds appear to be specific for Akt, as the phosphorylation of the upstream kinase, PDK-1, is unaffected by any of the SH compounds, as is […]. Cell-line specific, selective inhibition of phosphorylation of substrates downstream of Akt, such as c-Raf, 4EBP-1, GSK-3, and/or FKHR/AFX was observed. […] Phosphorylation of tuberin, 4EBP-1 and P70S6K (substrates that control protein translation) was inhibited by SH23, 24, and 25; and SH5-6 inhibited phosphorylation of tuberin and 4EBP-1. Phosphorylation of forkhead family members AFX and FKHR that control transcription was inhibited by SH23 or 25. Phosphorylation of GSK-3 and c-Raf was attenuated by SH23-25.

MB468 cells = experiment: Apoptosis in MB468 cells; details: MB468 cells (data not shown)
Method: as §1

AFX = experiment: Immunoblotting with phospho-specific antibodies: AFX phosphorylation
Method: as §2

FKHR = experiment: Immunoblotting with phospho-specific antibodies: FKHR phosphorylation
Method: as §2

p70S6K = experiment: Immunoblotting with phospho-specific antibodies: p70S6K phosphorylation
Method: as §2

[2] = H1703 (FIG. 3A) or H157 cells (FIG. 3B)

Row | SMILES | increase of apoptosis [1] | p38 phosphorylation (p38) | apoptosis (H1355 and A549 cells) | native Akt levels (immunoblot) (Akt) | Akt phosphorylation (Akt; [2]) | native Akt levels (Akt; [2]) | Akt phosphorylation at S473 (immunoblot) (Akt; H1703 cells (wild type PTEN)) | Akt phosphorylation (Akt; all three cell lines, FIG. 1F) | decreasing Akt phosphorylation (Akt) | phosphorylation of 4EBP-1 (4EBP-1) | phosphorylation of tuberin (tuberin) | apoptosis (MB468 cells) | Akt phosphorylation at S473 (immunoblot) (Akt; cell line not specified (H1703, H157)) | Akt phosphorylation at S473 (immunoblot) (Akt; H157 cells (mutant PTEN)) | phosphorylation of AFX (AFX) | phosphorylation of FKHR (FKHR) | phosphorylation of P70S6K (p70S6K)
1 | CCCCCCCCCCCCCCCCCCOCC(COP(=O)(O)OC1C(O)CC(O)C(O)C1O)OC (centres unmarked) [DPIEL] | no effect | decreased | – | – | – | – | – | – | – | – | – | – | – | – | – | – | –
2 | CCCCCCCCCCCCCCCCCCOC[C@H](COP(=O)(O)O[C@H]1[C@H](O)[C@@H](O)[C@H](O)C[C@H]1OC)OC [SH5] | – | – | did not undergo apoptosis | without affecting | inhibited | without affecting | decreased | completely inhibited | very active | inhibited | inhibited | Increased apoptosis | – | – | – | – | –
3 | CCCCCCCCCCCCCCCCCCOC[C@H](COP(=O)(O)O[C@@H]1CC[C@@H](O)[C@H](O)[C@H]1O)OC [SH6] | – | – | did not undergo apoptosis | without affecting | inhibited | without affecting | decreased | completely inhibited | very active | inhibited | inhibited | Increased apoptosis | – | – | – | – | –
4 | CCCCCCCCCCCCCCCCCCOC[C@H](CO)OC [SH7, reference compound] | no effect | – | did not undergo apoptosis | – | did not decrease | – | – | – | – | – | – | – | lack of decreased phosphorylation | – | – | – | –
5 | CCCCCCCCCCCCCCCCCCOC[C@H](COP(=O)(O)O[C@@H]1[C@H](O)[C@H](O)C[C@H](O)[C@H]1O)OC [SH10] | – | – | – | – | inhibited | without affecting | – | – | – | – | – | – | – | – | – | – | –
6 | CCCCCCCCCCCCCCCCCCOC[C@H](COP(=O)(O)O[C@H]1[C@H](O)C[C@H](O)C[C@H]1O)OC [SH16] | – | – | – | without affecting | – | – | decreased | – | – | – | – | – | – | All but SH16 | – | – | –
7 | CCCCCCCCCCCCCCCCCCOCC(COP(=O)(O)OC1C(OCC(C)C)CC(O)C(O)C1O)OC (centres unmarked) [SH23] | – | – | – | without affecting | – | – | decreased | completely inhibited | very active | inhibited | inhibited | – | – | – | inhibited | inhibited | inhibited
8 | CCCCCCCCCCCCCCCCCCOCC(COP(=O)(O)OC1C(OCC2CCCCC2)CC(O)C(O)C1O)OC (centres unmarked) [SH24] | – | – | – | without affecting | – | – | decreased | completely inhibited | very active | inhibited | inhibited | – | – | – | – | – | inhibited
9 | CCCCCCCCCCCCCCCCCCOCC(COP(=O)(O)OC1C(O)CCC(O)C1O)OC (centres unmarked) [SH25] | – | – | – | without affecting | – | – | decreased | completely inhibited | very active | inhibited | inhibited | – | – | – | inhibited | inhibited | inhibited
